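Cells were grown in 96-well plates and exposed to each compound for 48 hours at five concentrations; endpoints were interpolated linearly between bracketing concentrations, or set to the highest concentration if not reached. The concentration for 50% growth inhibition is given as GI50. TGI: concentration producing complete growth inhibition.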

Data on eleven compounds can be found in PubChem BioAssay (NCI).

Among the test systems are SNB-78 CNS; DMS 273 small cell lung; XF 498 CNS; LXFL 529 NSCLC; M19-MEL melanoma; KM20L2 colon; RXF-631 renal.
Common to all, as to assay: NCI tumour cell line growth inhibition, 48 h

In the case of `CCC1(OC(=O)CN2CCN(CCO)CC2)C(=O)OCc2c1cc1n(c2=O)Cc2cc3ccccc3nc2-1` (centres undefined), the TGI in the experiment with SNB-78 CNS is greater than 100 µM; in the experiment on DMS 273 small cell lung it was 0.367 µM; in the experiment with XF 498 CNS, 14.2 µM; in the experiment on LXFL 529 NSCLC it was 21.4 µM; with M19-MEL melanoma, 6.99 µM; in the experiment on KM20L2 colon it was 7.46 µM.

As for `CC(=O)O[C@H]1C(=O)[C@@]2(C)C([C@H](OC(=O)c3ccccc3)[C@]3(O)C[C@H](OC(=O)[C@H](O)[C@H](NC(=O)c4ccccc4)c4ccc(Cl)cc4)C(C)=C1C3(C)C)C1(OC(C)=O)CO[C@@H]1C[C@@H]2O` (some centres undefined), the GI50 in the experiment on XF 498 CNS was 0.0182 µM. Further, the TGI in the experiment with LXFL 529 NSCLC is 26 µM; in the experiment with RXF-631 renal, greater than 100 µM.

For `O=C1C=C(N2CCCC2)C=C(N2CCCC2)C1`, the TGI in the experiment on SNB-78 CNS is greater than 100 µM; in the experiment with DMS 273 small cell lung it was greater than 100 µM; in the experiment on XF 498 CNS, greater than 100 µM; in the experiment with LXFL 529 NSCLC, greater than 100 µM; with M19-MEL melanoma, 91.2 µM; with KM20L2 colon, greater than 100 µM.

Consider `O=C(Cc1ccccc1)NN1C(=O)C(Cl)C1c1cccc(O)c1` (centres undefined), for which the TGI worked out at 73.6 µM with SNB-78 CNS; 37.9 µM in the experiment with DMS 273 small cell lung; 35.4 µM in the experiment with XF 498 CNS; 22.8 µM with LXFL 529 NSCLC; 35.8 µM in the experiment with M19-MEL melanoma; 32.2 µM with KM20L2 colon.

On to `CCN(CC)CCNC(=O)c1ccc([N+](=O)[O-])cc1OC`, for which the TGI with SNB-78 CNS, in the experiment on DMS 273 small cell lung, in the experiment on LXFL 529 NSCLC, in the experiment on M19-MEL melanoma and in the experiment with KM20L2 colon was greater than 100 µM each time.

In the case of `Cc1c(NC(=O)C(=O)N=NC(=O)c2ccncc2)c(O)c2ccccc2c1O`, the TGI in the experiment with SNB-78 CNS is 39.7 µM; with DMS 273 small cell lung it was 23.2 µM; with LXFL 529 NSCLC, 28.2 µM; in the experiment on M19-MEL melanoma, 3.23 µM; in the experiment with KM20L2 colon, 70.3 µM; in the experiment on RXF-631 renal, greater than 100 µM.

`FC(F)(F)P1C2C=CC(CC2)C1(F)F` (centres undefined): the TGI in the experiment with SNB-78 CNS, in the experiment on DMS 273 small cell lung, with XF 498 CNS, in the experiment with LXFL 529 NSCLC, with M19-MEL melanoma and in the experiment with KM20L2 colon was greater than 100 µM throughout.

For `CCOc1ccc(N2C(=O)C3c4[nH]c5ccccc5c4C4CCC(C(C)(C)C)CC4C3C2=O)cc1` (centres undefined), the TGI in the experiment on SNB-78 CNS, in the experiment with DMS 273 small cell lung, in the experiment with XF 498 CNS, in the experiment on LXFL 529 NSCLC and in the experiment on KM20L2 colon was greater than 100 µM each time.

With `Cc1c(C(=O)CSc2nc3ccc([N+](=O)[O-])cc3[nH]2)c(=O)n(-c2ccccc2)n1C`, the TGI in the experiment with DMS 273 small cell lung, in the experiment with XF 498 CNS, with LXFL 529 NSCLC and in the experiment on M19-MEL melanoma was greater than 100 µM in each case.

For `COc1cc(C2C(Cl)C(=O)N2n2cnc3ccccc3c2=O)cc(OC)c1OC` (centres undefined), the TGI with SNB-78 CNS, in the experiment with DMS 273 small cell lung, with XF 498 CNS, in the experiment on LXFL 529 NSCLC, in the experiment with M19-MEL melanoma and in the experiment with KM20L2 colon was greater than 100 µM in each case.

Turning to `O=C(O)C(CS)NCc1c2ccccc2[n+]([O-])c2ccccc12` (centres undefined), the TGI in the experiment with SNB-78 CNS is greater than 100 µM; in the experiment with DMS 273 small cell lung it was greater than 100 µM; in the experiment on LXFL 529 NSCLC, 84.3 µM; with M19-MEL melanoma, greater than 100 µM; in the experiment on KM20L2 colon it was greater than 100 µM; in the experiment with RXF-631 renal it was greater than 100 µM.
